Literature values in US20260131008A1, “HYALURONIC ACID BASED DRUG DELIVERY SYSTEMS” (priority 2023, published 2026).

Details: in vivo

For hyaluronic acid [Uncrosslinked HA], the vitreal half-life is given as “weeks” and the “vitreal half-life, shortest estimates” value is given as 48 h.
